The numbers were not newly measured in patent US9301906B2, “Dentrifice composition” (Kao Corporation, priority 2011, dated 2016), which cites them from elsewhere.

Consider `OC[C@@H](O)[C@@H](O)[C@H](O)[C@@H](O)CO` [sorbitol], for which the “solubility in 100 g of an aqueous solution at 20° C.” value (“solubility in 100 g” for short) is 72 g in 100 g of an aqueous solution. Consider `OC[C@@H](O)[C@H](O)[C@@H](O)CO` [xylitol], for which the “solubility in 100 g” value was 66 g in 100 g of an aqueous solution. Consider `OC[C@@H](O)[C@@H](O)CO` [erythritol], for which the “solubility in 100 g” value is listed as 36 g in 100 g of an aqueous solution. Turning to `OC[C@@H](O)[C@@H](O[C@H]1O[C@H](CO)[C@@H](O)[C@H](O)[C@H]1O)[C@H](O)[C@@H](O)CO` [maltitol], the “solubility in 100 g” value was 60 g in 100 g of an aqueous solution. In the case of `OC[C@@H](O)[C@@H](O)[C@H](O)[C@H](O)CO` [mannitol], the “solubility in 100 g” value was 18 g in 100 g of an aqueous solution.
